The text below walks through data of patent US8158021B2, “Polymerizable liquid crystal compound, polymerizable liquid crystal composition, liquid crystalline polymer, and optical anisotropic article” (Zeon Corporation, priority 2007, dated 2012).

Data set [1] in a line: Measurement of phase transition temperature (liquid crystallinity temperature range). In kind it is physicochemical. The method, then:
The substrates were heated from 30° C. to 250° C. on a hot plate, and then cooled to 30° C. A change in structure during a change in temperature was observed using a polarization optical microscope (“ECLIPSE LV100POL” manufactured by Nikon Corporation) to measure the phase transition temperature.
In Table 1, “C” indicates “Crystal”, “N” indicates “Nematic”, and “I” indicates “Isotropic”.

Data set [2] can be described thus: Formation of cholesteric phase in cured liquid crystalline polymer film. The note with it: composition with polymerizable chiral compound; cured film 4 μm; transmission spectrum. Details: key: A case where a cholesteric phase was formed is indicated by “Formed”; a case where a cholesteric phase was not formed is indicated by “Not formed”. In kind it is physicochemical. The method, then: The polymerizable liquid crystal composition solution was applied to a glass substrate provided with a rubbed polyimide alignment film using a bar coater (“SA-203” manufactured by Tester Sangyo Co., Ltd., Rod No. 8, shaft diameter: 12.7 mm). After drying the resulting film on a hot plate at 100° C. for three minutes, ultraviolet rays (1000 mJ/cm^2) were applied to the film from a mercury lamp to obtain a cured liquid crystalline polymer film having a thickness of 4 μm.
The transmission spectrum of the cured film was measured using a spectrophotometer (“MCPD-3000” manufactured by Otsuka Electronics Co., Ltd.). A selective reflection region (i.e., a region in which the transmittance was about 50%) was observed when a cholesteric phase was formed. The bandwidth was about 50 to 100 nm. A case where a cholesteric phase was formed is indicated by “Formed”, and a case where a cholesteric phase was not formed is indicated by “Not formed”.

Data set [3] is described as follows: Measurement of optical anisotropy (value Δn) of cured polymer film. In kind it is physicochemical. The settings on record: cured polymer film 1.5 μm; retardation at 545.3 nm; Δn=Re/d. How it is done: 2.7 parts of a photoinitiator (“Irgacure 907” manufactured by Ciba Specialty Chemicals Co., Ltd.) was then homogenously dissolved in the solution. The resulting solution was applied to a glass substrate provided with a rubbed polyimide alignment film using a bar coater (“SA-203” manufactured by Tester Sangyo Co., Ltd., Rod No. 4, shaft diameter: 12.7 mm). After drying the resulting film on a hot plate at 100° C. for two minutes, ultraviolet rays (700 mJ/cm^2) were applied to the film from a mercury lamp to obtain a cured polymer film having a thickness of 1.5 μm.
The retardation (Re) of the cured film at a wavelength of 545.3 nm was measured using an ellipsometer (“XLS-100” manufactured by J. A. Woollam). The thickness (d) of the liquid crystal layer was also measured, and the value Δn was calculated by “Δn=Re/d”.

Data set [4] in a line: Solubility in cyclopentanone. The settings on record: in cyclopentanone at 60° C., compound concentration 40 wt %.
Method: The solubility of the compound at 60° C. was evaluated when preparing the solution having a compound concentration of 40 wt %.
The nature of data set [5]: Mutual solubility when forming the cured film. The note with it: at 23° C., naked eye observation of turbidity.
Method: When forming the cured film of the compound, the mutual solubility of the compound at 23° C. was evaluated by naked eye observation. A case where turbidity was not observed is indicated by “Good”, and a case where turbidity was observed is indicated by “Bad”.
Setting [6] is: heated from 30° C. to 250° C., then cooled to 30° C., polarization optical microscope.

As to `C=CC(=O)OCCCCCCOc1ccc(C(=O)Oc2ccc(C=NN=Cc3ccc(OC(=O)c4ccc(OCCCCCCOC(=O)C=C)cc4)c(C(=O)OCCOCCC)c3)cc2)cc1` [Polymerizable liquid crystal compound 3], the “Liquid crystallinity temperature range” value in data set [1] (setting [6]) is 190 °C or more. The Cholesteric phase entry in data set [2] was “Formed”. In addition, in data set [3], the Δn came out at 0.176.

`C=CC(=O)OCCCCCCOc1ccc(C(=O)Oc2ccc(C=NN=Cc3ccc(OC(=O)c4ccc(OCCCCCCOC(=O)C=C)cc4)c(OCC)c3)cc2)cc1` [Polymerizable liquid crystal compound 4]: in data set [1] (setting [6]), the “Liquid crystallinity temperature range” value was 175 °C or more. Further, the Cholesteric phase result in data set [2] is on record as “Formed”. Further, the Δn in data set [3] was found to be 0.199.

Consider `C=CC(=O)OCCCCCCOc1ccc(C(=O)Oc2ccc(C=NN=Cc3cc(OC)c(OC(=O)c4ccc(OCCCCCCOC(=O)C=C)cc4)c(OC)c3)cc2)cc1` [Polymerizable liquid crystal compound 5], for which the “Liquid crystallinity temperature range” value in data set [1] (setting [6]) was 155 °C or more. For the same compound, in data set [2], the Cholesteric phase result is given as “Formed”. Moreover, the Δn in data set [3] is 0.116.

On to `C=CC(=O)OCCCCOc1ccc(C(=O)Oc2ccc(C=NN=Cc3ccc(OC(=O)c4ccc(OCCCCOC(=O)C=C)cc4)c(OCC)c3)cc2)cc1` [Polymerizable liquid crystal compound 6], for which, in data set [1] (setting [6]), the “Liquid crystallinity temperature range” value is 170 °C or more. In data set [2], the Cholesteric phase entry is “Formed”. In data set [3], this compound yielded a Δn of 0.202.

Regarding `C=CC(=O)OCCCCCCOc1ccc(C(=O)Oc2ccc(C=NN=Cc3ccc(OC(=O)c4ccc(OCCCCCCOC(=O)C=C)cc4)c(C(=O)OCCOC(=O)C=C)c3)cc2)cc1` [Polymerizable liquid crystal compound 7], the “Liquid crystallinity temperature range” value in data set [1] (setting [6]) is 125 °C or more. The Cholesteric phase result in data set [2] is listed as “Formed”. The Δn in data set [3] came out at 0.187.

With `C=CC(=O)OCCCCCCOc1ccc(C(=O)Oc2ccc(C=NN=Cc3ccc(OC(=O)c4ccc(OCCCCCCOC(=O)C=C)cc4)c(OCC)c3)cc2OCC)cc1` [Polymerizable liquid crystal compound 8], the “Liquid crystallinity temperature range” value in data set [1] (setting [6]) is 150 °C or more. The Cholesteric phase result in data set [2] was “Formed”. For the same compound, in data set [3], the Δn was found to be 0.200.

Turning to `C=CC(=O)OCCCCCCOc1ccc(C(=O)Oc2ccc(C=NN=Cc3ccc(OC(=O)c4ccc(OCCCCCCOC(=O)C=C)cc4)c(C(=O)OC)c3)cc2C(=O)OC)cc1` [Polymerizable liquid crystal compound 10], the “Liquid crystallinity temperature range” value in data set [1] (setting [6]) is 130 °C or more. Moreover, in data set [2], the Cholesteric phase entry was “Formed”. Also, the Δn in data set [3] came to 0.191.

Turning to `C=CC(=O)OCCCCOC(=O)Oc1ccc(C(=O)Oc2ccc(OC(=O)c3ccc(OC(=O)OCCCCOC(=O)C=C)cc3)c(C)c2)cc1` [Polymerizable liquid crystal compound 12, reference compound], in data set [1] (summary of Table 1), the “Liquid crystallinity temperature range” value is “narrow temperature range”.

On to `C=CC(=O)OCCCCOC(=O)Oc1ccc(C(=O)Oc2ccc(OC(=O)c3ccc(OC(=O)OCCCCOC(=O)C=C)cc3)c(C)c2)cc1` [compound 12], for which the “Liquid crystallinity temperature range” value in data set [1] (setting [6]) worked out at 63 °C. Moreover, the Cholesteric phase entry in data set [2] is listed as “Formed”. Further, the Δn in data set [3] was found to be 0.100. Besides, the Solubility entry in data set [4] was “Good”. In data set [5], the Mutual solubility entry is “Good”.
